Data taken from patent US10206394B2, “Herbicidal compounds” (Syngenta Participations AG, priority 2014, dated 2019).
Where two headings read alike, the source gives them in different places.

Assays:
Assay in all cases: Glasshouse assay for herbicidal activity (pre- and post-emergence), percentage phytotoxicity
Type in all cases: in vivo
[1] = system: Avena fatua (AVEFA); details: Avena fatua
Procedure, shortened: (§1)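 Sow seed in standard soil in pots; apply test herbicide after 1 day (PRE) or about 12 days (POST). Grow on in the glasshouse, watering twice daily, cool-season species at 20/16 °C and warm-season at 24/18 °C. Score visible damage (0–100%) at 20 or 15 DAA respectively.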

[2] = system: Alopecurus myosuroides (ALOMY); details: Alopecurus myosuroides
Procedure, shortened: as §1

[3] = system: Lolium perenne (LOLPE); details: Lolium perenne
Procedure, shortened: as §1

[4] = system: Echinochloa crus-galli (ECHCG); details: Echinochloa crus-galli
Procedure, shortened: as §1

[5] = post-emergence, 360 h, POST-emergence, rate 250 g/ha, visual score 15 DAA (100%=total damage, 0%=no damage), read-out: Post-emergence herbicidal activity (percentage phytotoxicity) AVEFA POST
[6] = pre-emergence, 480 h, PRE-emergence, rate 250 g/ha, visual score 20 DAA (100%=total damage, 0%=no damage), read-out: Pre-emergence herbicidal activity (percentage phytotoxicity) AVEFA PRE
[7] = post-emergence, 360 h, POST-emergence, rate 250 g/ha, visual score 15 DAA (100%=total damage, 0%=no damage), read-out: Post-emergence herbicidal activity (percentage phytotoxicity) ALOMY POST
[8] = pre-emergence, 480 h, PRE-emergence, rate 250 g/ha, visual score 20 DAA (100%=total damage, 0%=no damage), read-out: Pre-emergence herbicidal activity (percentage phytotoxicity) ALOMY PRE
[9] = post-emergence, 360 h, POST-emergence, rate 250 g/ha, visual score 15 DAA (100%=total damage, 0%=no damage), read-out: Post-emergence herbicidal activity (percentage phytotoxicity) LOLPE POST
[10] = pre-emergence, 480 h, PRE-emergence, rate 250 g/ha, visual score 20 DAA (100%=total damage, 0%=no damage), read-out: Pre-emergence herbicidal activity (percentage phytotoxicity) LOLPE PRE
[11] = post-emergence, 360 h, POST-emergence, rate 250 g/ha, visual score 15 DAA (100%=total damage, 0%=no damage), read-out: Post-emergence herbicidal activity (percentage phytotoxicity) ECHCG POST
[12] = pre-emergence, 480 h, PRE-emergence, rate 250 g/ha, visual score 20 DAA (100%=total damage, 0%=no damage), read-out: Pre-emergence herbicidal activity (percentage phytotoxicity) ECHCG PRE
[13] = post-emergence, 360 h, Rate 250 g/ha, post-emergence, assessed visually 15 DAA, 100%=total damage, 0%=no damage, read-out: Post-emergence herbicidal activity (percentage phytotoxicity) AVEFA POST
[14] = pre-emergence, 480 h, Rate 250 g/ha, pre-emergence, assessed visually 20 DAA, 100%=total damage, 0%=no damage, read-out: Pre-emergence herbicidal activity (percentage phytotoxicity) AVEFA PRE
[15] = post-emergence, 360 h, Rate 250 g/ha, post-emergence, assessed visually 15 DAA, 100%=total damage, 0%=no damage, read-out: Post-emergence herbicidal activity (percentage phytotoxicity) ALOMY POST
[16] = pre-emergence, 480 h, Rate 250 g/ha, pre-emergence, assessed visually 20 DAA, 100%=total damage, 0%=no damage, read-out: Pre-emergence herbicidal activity (percentage phytotoxicity) ALOMY PRE
[17] = post-emergence, 360 h, Rate 250 g/ha, post-emergence, assessed visually 15 DAA, 100%=total damage, 0%=no damage, read-out: Post-emergence herbicidal activity (percentage phytotoxicity) LOLPE POST
[18] = pre-emergence, 480 h, Rate 250 g/ha, pre-emergence, assessed visually 20 DAA, 100%=total damage, 0%=no damage, read-out: Pre-emergence herbicidal activity (percentage phytotoxicity) LOLPE PRE
[19] = post-emergence, 360 h, Rate 250 g/ha, post-emergence, assessed visually 15 DAA, 100%=total damage, 0%=no damage, read-out: Post-emergence herbicidal activity (percentage phytotoxicity) ECHCG POST
[20] = pre-emergence, 480 h, Rate 250 g/ha, pre-emergence, assessed visually 20 DAA, 100%=total damage, 0%=no damage, read-out: Pre-emergence herbicidal activity (percentage phytotoxicity) ECHCG PRE

Row | SMILES | pest or weed control at 250 g/ha [1, 5] [%] | pest or weed control at 250 g/ha [1, 6] [%] | pest or weed control at 250 g/ha [2, 7] [%] | pest or weed control at 250 g/ha [2, 8] [%] | pest or weed control at 250 g/ha [3, 9] [%] | pest or weed control at 250 g/ha [3, 10] [%] | pest or weed control at 250 g/ha [4, 11] [%] | pest or weed control at 250 g/ha [4, 12] [%] | pest or weed control at 250 g/ha [1, 13] [%] | pest or weed control at 250 g/ha [1, 14] [%] | pest or weed control at 250 g/ha [2, 15] [%] | pest or weed control at 250 g/ha [2, 16] [%] | pest or weed control at 250 g/ha [3, 17] [%] | pest or weed control at 250 g/ha [3, 18] [%] | pest or weed control at 250 g/ha [4, 19] [%] | pest or weed control at 250 g/ha [4, 20] [%] | further results
1 | C#CC(C)(C)NC(=O)CC1CC(=O)C(c2c(C)cc(-n3cc(Cl)cn3)cc2C)C1=O (stereo not drawn) [Compound B313] | 70 | 80 | 90 | 90 | 70 | 90 | 90 | 100 | – | – | – | – | – | – | – | – | –
2 | Cc1cc(-c2ccc(C#N)cn2)cc(C)c1C1C(=O)CC(CC(=O)NC(C)C)C1=O (stereo not drawn) [Compound B320] | 100 | 100 | 100 | 100 | 100 | 100 | 100 | 100 | – | – | – | – | – | – | – | – | –
3 | CC#Cc1cc(C)c(C2C(=O)CC(CC(=O)NC(C)C)C2=O)c(C)c1 (stereo not drawn) [Compound A8, 2-[3-(2,6-dimethyl-4-prop-1-ynyl-phenyl)-2,4-dioxo-cyclopentyl]-N-isopropyl-acetamide] | – | – | – | – | – | – | – | – | 100 | 100 | 100 | 100 | 100 | 100 | 100 | 100 | –
4 | C#CCNC(=O)CC1CC(=O)C(c2c(C)cc(C#CC)cc2CC)C1=O (stereo not drawn) [Compound A68] | – | – | – | – | – | – | – | – | 100 | 100 | 90 | 70 | 100 | 100 | 100 | 100 | –
5 | CCc1cc(C)cc(C)c1C1C(=O)CC(CC(=O)NCc2ccc(C#N)cc2)C1=O (stereo not drawn) [Compound B254] | 100 | 90 | 100 | 90 | 100 | 90 | 100 | 100 | – | – | – | – | – | – | – | – | –
6 | Cc1cc(-c2ncc(Cl)cn2)cc(C)c1C1=C(OC(=O)N2CCCC2)C(CC(=O)NC(C)(C)C)CC1=O (stereo not drawn) [Compound P7] | – | – | – | – | – | – | – | – | – | – | – | – | – | – | – | – | pest or weed control at 250 g/ha ([1]; post-emergence, 360 h, Rate 250 g/ha, post-emergence, visual assessment 15 DAA, 100%=total damage, 0%=no damage, read-out: Post-emergence herbicidal activity (percentage phytotoxicity) AVEFA POST): 60%; pest or weed control at 250 g/ha ([1]; pre-emergence, 480 h, Rate 250 g/ha, pre-emergence, visual assessment 20 DAA, 100%=total damage, 0%=no damage, read-out: Pre-emergence herbicidal activity (percentage phytotoxicity) AVEFA PRE): 10%; pest or weed control at 250 g/ha ([2]; post-emergence, 360 h, Rate 250 g/ha, post-emergence, visual assessment 15 DAA, 100%=total damage, 0%=no damage, read-out: Post-emergence herbicidal activity (percentage phytotoxicity) ALOMY POST): 70%; pest or weed control at 250 g/ha ([2]; pre-emergence, 480 h, Rate 250 g/ha, pre-emergence, visual assessment 20 DAA, 100%=total damage, 0%=no damage, read-out: Pre-emergence herbicidal activity (percentage phytotoxicity) ALOMY PRE): 0%; pest or weed control at 250 g/ha ([3]; post-emergence, 360 h, Rate 250 g/ha, post-emergence, visual assessment 15 DAA, 100%=total damage, 0%=no damage, read-out: Post-emergence herbicidal activity (percentage phytotoxicity) LOLPE POST): 40%; pest or weed control at 250 g/ha ([3]; pre-emergence, 480 h, Rate 250 g/ha, pre-emergence, visual assessment 20 DAA, 100%=total damage, 0%=no damage, read-out: Pre-emergence herbicidal activity (percentage phytotoxicity) LOLPE PRE): 30%; pest or weed control at 250 g/ha ([4]; post-emergence, 360 h, Rate 250 g/ha, post-emergence, visual assessment 15 DAA, 100%=total damage, 0%=no damage, read-out: Post-emergence herbicidal activity (percentage phytotoxicity) ECHCG POST): 80%; pest or weed control at 250 g/ha ([4]; pre-emergence, 480 h, Rate 250 g/ha, pre-emergence, visual assessment 20 DAA, 100%=total damage, 0%=no damage, read-out: Pre-emergence herbicidal activity (percentage phytotoxicity) ECHCG PRE): 50%
